The nature of experiment [1]: Titration of cysteine with GSAO, DTNB assay. The class given is binding. The settings on record: cysteine 28 μM, GSAO 0-50 μM, 10 minutes. The procedure:
FIG. 11. Titration of DMP or cysteine with GSAO. DMP (15 ? M corresponding to 30 μM thiols) or cysteine (28 μM) was incubated with GSAO (0-50 μM) for 10 minutes. DTNB (950 μM) was then added and the reactions incubated for a further 10 minutes. The concentration of thiol in the reactions was determined from the absorbance of the TNB dianion at 412 nm.
A stock solution of DMP (5 μL, 50 μmol) was dissolved in DMSO (995 μL), giving a concentration of 50 mM DMP, A second dilution of the 50 mM DMP stock solution (10 μL) in pH 7.0 buffer (0.1 M HEPES, 0.3 M NaCl, 1 mM EDTA) (990 μL) gave a working solution of 500 ? M DMP. The activity of the arsenical could then be determined by the titration of varying amounts of arsenical against the DMP working solution (10 μL) in a 96-well microtitre plate, with the total volume made up to 195 μL by addition of buffer. After a 10 minute incubation at room temperature, during which time the solutions were agitated on a plate shaker, 5 μL of a 37.9 mM stock solution of DTNB (15 mg) in DMSO (1 mL) was added, and the plate incubated with shaking for another 10 minutes. The absorbance at 412 nm due to the formation of the TNB dianion was measured using a Molecular Devices Thermomax Plus (Palo Alto, Calif.) microplate reader. The extinction coefficient for the TNB dianion at pH 7.0 is 14, 150 M^−1cm^−1 at 412 nm (Riddles et al., 1983).

The test system of a further experiment is HT1080 tumours. Description: Tumour growth in mice, subcutaneous administration. The class given is in vivo, SCID mice. The following applies: 10 mg per kg per day. The procedure:
FIG. 25. Inhibition of human fibrosarcoma and murine Lewis lung tumour growth following systemic administration of GSAO. HT1080 or Lewis lung tumours were established in the proximal midline of female 7 to 9 week old SCID or C57Bl6/J mice, respectively. When the tumours were ˜0.1 cm^3 in volume the mice were randomised into two groups (n=5) and treated with either GSAA or GSAO at a dose of 10 mg per kg per day in 0.2 mL of PBS containing 100 mM glycine. The compounds were administered subcutaneously at a site distant from the tumour. Tumour volume and animal weight was measured every 3 days. The GSAO/GSAA HT1080 tumour volume ratio at day 17 of treatment was 0.29 (part A). The GSAO/GSAA Lewis lung tumour volume ratio at day 12 of treatment was 0.29 (part B). The data points and errors represent the mean and SE of the tumour volumes.
Female 7 to 9 week old SCID or C57Bl6/J mice were used (Massachusetts General Hospital, Boston, Mass.). Mice were held in groups of 3 to 5 at a 12 hour day and night cycle and were fed with animal chow and water ad libidum. […] The tumours were measured in two diameters and tumour volume was calculated using the relationship, tumour volume=a×b^2×0.52, where a is the longest and b the shortest diameters in cm. […] Tumour volume and animal weight was measured every 3 days. […]

Molecules are shown by their SMILES.

As to `NC(CCC(=O)NC(CSCC(=O)Nc1ccc([As]=O)cc1)C(=O)NCC(=O)O)C(=O)O` (stereo not drawn) [GSAO, 4-(N-(S-glutathionylacetyl)amino)-phenylarsenoxide], the “interaction with cysteine in DTNB titration” value in experiment [1] is listed as “any interaction of GSAO with cysteine was displaced by DTNB”. For the same molecule, the “inhibition of the rate of fibrosarcoma tumour growth” value with HT1080 tumours (subcutaneous) is about 70%. Moreover, in the experiment on HT1080 tumours (day 17 of treatment), the “GSAO/GSAA HT1080 tumour volume ratio” value is recorded as 0.29.
